Data set [1] is classed as physicochemical. As for the experimental part:
The maximum solubility in water was thus determined to be ca. 900 mg/mL. […] The tetrasodium salt of P^1,P^4-di(uridine 5′-) tetraphosphate was thus determined to have an excellent solubility and stability profile suitable for pharmaceutical applications. […]

For a further data set, the system named is rabbits. The experiment in a line: Local ocular tolerance and subchronic ocular toxicity study in rabbits. In kind it is in vivo. Conditions: multiple daily administrations over six weeks.
The nature of data set [2]: Nonclinical toxicologic profile (overall conclusion from the toxicity studies).
Text: (§1) A study in rabbits examined local ocular tolerance and subchronic ocular toxicity after multiple daily administrations over a six-week period.
(§2) A study in rabbits examines local ocular tolerance and subchronic ocular toxicity after multiple daily administrations over a six-week period.
For a further data set, the system named is rat. The experiment in a line: Single-dose acute inhalation toxicity study in rat. In kind it is in vivo. The settings on record: rats.
Another data set concerns dog. Put plainly: Single-dose acute inhalation toxicity study in dog. In kind it is in vivo. The settings on record: dogs.
The next data set deals with dogs. The experiment in a line: Single-dose acute intravenous toxicity study in dogs. In kind it is in vivo.
Data set [3] deals with normal healthy male volunteers. In kind it is in vivo, human.
Experimental: Forty non-smokers and 35 smokers were evaluated in 5 dosing cohorts of 16 volunteers, comprised of 12 receiving a single aerosolized dose of P^1,P^4-di(uridine 5′-) tetraphosphate, tetrasodium salt (20-400 mg) and 4 receiving placebo (normal saline).

Where two headings read alike, the source gives them in different places.

Text for rabbits: as §1, §2

Consider “P^1,P^4-di(uridine 5′-)tetraphosphate, tetralithium salt”, for which the stability profile entry in data set [1] was “excellent”. For the same substance, the “adverse findings in ocular toxicology studies” value with rabbits (present-tense example) is on record as “No adverse findings”. Also, the toxicology profile result in data set [2] (present-tense example) is “excellent toxicology profile with a wide safety margin”.

“P^1,P^4-di(uridine 5′-)tetraphosphate, monopotassiumtrilithium salt”: the stability profile entry in data set [1] is “excellent”. Besides, the “adverse findings in ocular toxicology studies” value in the data set on rabbits (present-tense example) was “No adverse findings”. The toxicology profile entry in data set [2] (present-tense example) is recorded as “excellent toxicology profile with a wide safety margin”.

As to “P^1,P^4-di(uridine 5′-)tetraphosphate, disodiumdipotassium salt”, the stability profile entry in data set [1] was “excellent”. The “adverse findings in ocular toxicology studies” value in the data set on rabbits (present-tense example) was “No adverse findings”. For the same substance, the toxicology profile result in data set [2] (present-tense example) is reported as “excellent toxicology profile with a wide safety margin”.

As for “P^1,P^4-di(uridine 5′-)tetraphosphate, tetrapotassium salt”, in data set [1], the stability profile result is on record as “excellent”. The “adverse findings in ocular toxicology studies” value in the data set on rabbits (present-tense example) is reported as “No adverse findings”. The toxicology profile entry in data set [2] (present-tense example) was “excellent toxicology profile with a wide safety margin”.

For “P^1,P^4-di(uridine 5′-)tetraphosphate, tetrasodium salt”, in data set [1], the degradation entry is “less than 1.5%”, the “maximum solubility in water” value is “ca. 900 mg/mL”, the solubility profile entry was “excellent” and the stability profile entry was “excellent”. In addition, the “adverse findings in ocular toxicology studies” value with rabbits is “No adverse findings”. Moreover, the acute toxicity result in the data set on rat is “low degree of acute toxicity”. In the data set with dog, the acute toxicity result is on record as “low degree of acute toxicity”. For the same substance, the acute toxicity entry in the data set on dogs is recorded as “low degree of acute toxicity”. The “stimulating the expectoration of sputum compared to placebo” value in data set [3] (conclusion) was “effective”. The safety and tolerability entry in data set [3] (in vivo) is “safe and well-tolerated”. Besides, the “effect to induce the expectoration of sputum” value in data set [3] (non-smokers) was “observed”. Also, the “stimulation of sputum expectoration over the next hour of sputum collection” value in data set [3] (smokers) is reported as “sustained”. Also, the toxicology profile result in data set [2] is “excellent toxicology profile with a wide safety margin”.

As to “P^1,P^4-di(uridine 5′-)tetraphosphate, monolithiummonopotassiumdisodium salt”, the stability profile entry in data set [1] is reported as “excellent”.
